Assay results as given in ChEMBL document CHEMBL6092203, “Discovery of Novel PROTAC-Based HPK1 Degraders with High Potency and Selectivity for Cancer Immunotherapy” (J Med Chem, 2024).

What was measured:
[1] = Drug metabolism in human hepatocytes assessed as phase 1 metabolites formation at 10 uM incubated for 120 mins by UHPLC-UV/MS/MS method; format: ADME, cell-based, Hepatocyte; settings: 2 h
[2] = Metabolic stability in dog hepatocytes assessed as intrinsic clearance at 1 uM incubated for 90 mins by LC-MS/MS method; format: ADME, cell-based, Canis lupus familiaris, Hepatocyte; settings: 1.5 h
in vivo [3] = settings: C57BL/6J, mouse, po, 10 mg/kg
[4] = AUC(0 to 24 hrs) in male Sprague-Dawley rat at 30 mg/kg/day, po measured at day 1; format: ADME, organism-based; settings: in vivo, time 1 day
MC-38 [5] = test: Synergistic antitumor activity against mouse MC38 cells implanted in C57BL/6J mouse assessed as reduction in tumor volume at 0.1 mg/kg, po bid administered for 3 to 4 weeks in presence of 5 mg/kg anti-PD1 and measured twice a week (reference value: 1549.22 +/- 217.92 mm3); format: functional; settings: time 3-4 weeks
Cytochrome P450 2C8 = target: T1, Cytochrome P450 2C8 (Homo sapiens, UniProt P10632); test: Inhibition of CYP2C8 in human liver microsomes using amodiaquine as substrate in presence of NADPH; format: ADME, Microsome
T1 sequence (P10632 whole entry): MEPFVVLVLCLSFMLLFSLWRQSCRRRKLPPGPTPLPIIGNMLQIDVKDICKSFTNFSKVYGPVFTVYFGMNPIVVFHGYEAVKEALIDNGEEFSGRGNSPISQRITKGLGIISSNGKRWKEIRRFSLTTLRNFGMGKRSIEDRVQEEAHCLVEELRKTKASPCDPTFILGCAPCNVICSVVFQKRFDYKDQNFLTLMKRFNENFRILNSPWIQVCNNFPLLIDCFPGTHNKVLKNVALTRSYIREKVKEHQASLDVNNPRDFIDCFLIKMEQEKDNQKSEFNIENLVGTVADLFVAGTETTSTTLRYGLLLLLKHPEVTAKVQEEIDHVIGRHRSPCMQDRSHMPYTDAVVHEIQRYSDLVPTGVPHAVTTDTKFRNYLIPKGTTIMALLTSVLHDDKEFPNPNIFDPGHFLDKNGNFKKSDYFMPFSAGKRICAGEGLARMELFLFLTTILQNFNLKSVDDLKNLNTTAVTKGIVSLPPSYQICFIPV

[6] = Tmax in female Sprague-Dawley rat at 100 mg/kg/day, po measured at day 1; format: ADME, organism-based; settings: in vivo, time 1 day
[7] = Metabolic stability in human liver microsomes assessed as intrinsic clearance at 1 uM incubated for 45 mins by LC-MS/MS method; format: ADME, Microsome; settings: read-out: CLH
in vivo [8] = settings: female, Sprague-Dawley, rat, po, 100 mg/kg
[9] = Metabolic stability in mouse liver microsomes assessed as intrinsic clearance at 1 uM incubated for 45 mins by LC-MS/MS method; format: ADME, Microsome; settings: read-out: CLH
[10] = Drug metabolism in human hepatocytes assessed as phase 2 metabolites formation at 10 uM incubated for 120 mins by UHPLC-UV/MS/MS method; format: ADME, cell-based, Hepatocyte; settings: 2 h
MC-38 [11] = test: Synergistic antitumor activity against mouse MC38 cells implanted in C57BL/6J mouse assessed as reduction in tumor weight at 100 mg/kg, po QD administered for 3 to 4 weeks in presence of 5 mg/kg anti-PD1 and measured twice a week (reference value: 1.79 +/- 0.24 g); format: functional; settings: time 3-4 weeks
in vivo [12] = settings: male, Sprague-Dawley, rat, po, 2 mg/kg
MC-38 [13] = test: Antitumor activity against mouse MC38 cells implanted in C57BL/6J mouse assessed as reduction in tumor volume at 0.1 mg/kg, po BID administered for 3 to 4 weeks (reference value: 1549.22 +/- 217.92 mm3); format: functional; settings: time 3-4 weeks
MC-38 [14] = test: Synergistic antitumor activity against mouse MC38 cells implanted in C57BL/6J mouse assessed as tumor growth inhibition at 100 mg/kg, po QD measured after 4 weeks in presence of 5 mg/kg anti-PD1 and measured twice a week; format: functional; settings: MC-38, 672 h, read-out: TGI
[15] = Induction of INFgamma secretion in human T-cells incubated for 48 hrs by ELISA; format: functional, cell-based; settings: T-cell
MC-38 [16] = test: Antitumor activity against mouse MC38 cells implanted in C57BL/6J mouse assessed as tumor growth inhibition at 1 mg/kg, po BID measured after 4 weeks; format: functional; settings: MC-38, 672 h, read-out: TGI
in vivo [17] = settings: male, Sprague-Dawley, rat, po, 30 mg/kg
in vitro = settings: rhesus monkey, hepatocytes
[18] = Drug metabolism in mouse hepatocytes assessed as phase 2 metabolites formation at 10 uM incubated for 120 mins by UHPLC-UV/MS/MS method; format: ADME, cell-based, Hepatocyte; settings: 2 h
[19] = Tmax in C57BL/6J mouse at 10 mg/kg, po measured upto 24 hrs by LC-MS analysis; format: ADME, organism-based; settings: in vivo
[20] = Tmax in male Sprague-Dawley rat at 2 mg/kg/day, po measured at day 1; format: ADME, organism-based; settings: in vivo, time 1 day
Cytochrome P450 2C19 = Cytochrome P450 2C19 (Homo sapiens, UniProt P33261); test: Inhibition of CYP2C19 in human liver microsomes using S-mephenytoin as substrate in presence of NADPH; format: ADME, Microsome
[21] = AUC(0 to 24 hrs) in female Sprague-Dawley rat at 2 mg/kg/day, po measured at day 1; format: ADME, organism-based; settings: in vivo, time 1 day
[22] = Tmax in female Sprague-Dawley rat at 100 mg/kg/day, po measured at day 14; format: ADME, organism-based; settings: in vivo, time 14 day
[23] = Drug distribution in rat lung measured after 0.5 to 6 hrs; format: ADME, tissue-based; settings: in vivo, time 0.5-6 hrs
MC-38 [24] = test: Synergistic antitumor activity against mouse MC38 cells implanted in C57BL/6J mouse assessed as tumor weight inhibition rate at 1 mg/kg, po bid measured after 4 weeks in presence of 5 mg/kg anti-PD1 and measured twice a week; format: functional; parameters: scale not given: the % may be the effect or the level left
MC-38 [25] = test: Antitumor activity against mouse MC38 cells implanted in C57BL/6J mouse assessed as tumor weight inhibition rate at 1 mg/kg, po BID measured after 4 weeks; format: functional; parameters: scale not given: the % may be the effect or the level left
[26] = Drug metabolism in monkey hepatocytes assessed as phase 2 metabolites formation at 10 uM incubated for 120 mins by UHPLC-UV/MS/MS method; format: ADME, cell-based, Macaca mulatta, Hepatocyte; settings: rhesus monkey, 2 h
[27] = Tmax in female Sprague-Dawley rat at 30 mg/kg/day, po measured at day 1; format: ADME, organism-based; settings: in vivo, time 1 day
[28] = Clearance in Sprague-Dawley rat at 2 mg/kg, iv measured upto 24 hrs by LC-MS analysis; settings: in vivo
[29] = Metabolic stability in monkey liver microsomes assessed as intrinsic clearance at 1 uM incubated for 45 mins by LC-MS/MS method; format: ADME, Macaca mulatta, Microsome; settings: rhesus monkey, read-out: CLH
MC-38 [30] = test: Antitumor activity against mouse MC38 cells implanted in C57BL/6J mouse assessed as tumor growth inhibition at 0.1 mg/kg, po BID measured after 4 weeks; format: functional; settings: MC-38, 672 h, read-out: TGI
[31] = Drug absorption in mouse at 10 to 100 mg/kg, po; format: ADME, organism-based; settings: in vivo, dose 10-100 mg/kg
[32] = Metabolic stability in dog liver microsomes assessed as intrinsic clearance at 1 uM incubated for 45 mins by LC-MS/MS method; format: ADME, Canis lupus familiaris, Microsome; settings: read-out: CLH

Sequence of Cytochrome P450 2C19 (P33261 whole entry): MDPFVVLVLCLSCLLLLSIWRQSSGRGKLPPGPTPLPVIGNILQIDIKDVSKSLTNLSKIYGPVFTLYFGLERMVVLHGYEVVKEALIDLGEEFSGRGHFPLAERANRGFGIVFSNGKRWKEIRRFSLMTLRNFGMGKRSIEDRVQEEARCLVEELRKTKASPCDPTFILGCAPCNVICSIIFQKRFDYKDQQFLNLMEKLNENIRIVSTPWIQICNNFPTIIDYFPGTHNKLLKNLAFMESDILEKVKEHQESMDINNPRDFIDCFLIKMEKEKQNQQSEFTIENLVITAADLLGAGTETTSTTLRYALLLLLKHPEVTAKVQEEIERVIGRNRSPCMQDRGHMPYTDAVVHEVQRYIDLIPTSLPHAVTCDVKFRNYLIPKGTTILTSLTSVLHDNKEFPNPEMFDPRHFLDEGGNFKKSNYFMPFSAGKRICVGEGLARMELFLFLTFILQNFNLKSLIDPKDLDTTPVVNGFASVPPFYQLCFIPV

O=C1CCN(c2cc(C(=O)N3CCC(CC4CCN(c5ccc(-c6cnc7[nH]cc(-c8cnn(CC(F)(F)F)c8)c7n6)cn5)CC4)CC3)ccc2Cl)C(=O)N1
Drug metabolism [1]: metabolite_detected | CLH [2]: 3.33 µL/min/mg | bioavailability at 24 h (in vivo [3]): 43.7% | AUC(0-t) at 24 h [4]: 38200 ng·h/mL | Activity (MC-38 [5]): 934.84 mm3 | IC50 (Cytochrome P450 2C8): > 10 µM | Tmax [6]: 8 h | microsomal CLint at 1 µM [7]: 3.48 µL/min/mg | Cmax at 24 h (in vivo [8]): 11200 ng/mL | microsomal CLint at 1 µM [9]: 13.4 µL/min/mg | Drug metabolism [10]: metabolite_detected | Activity (MC-38 [11]): 0.3 g | AUC at 336 h (in vivo [12]): 830 ng·h/mL | Activity (MC-38 [13]): 1107.91 mm3 | inhibition in vivo at 100 mg/kg (MC-38 [14]): 91% | EC50 [15]: 32.6 nM | inhibition in vivo at 1 mg/kg (MC-38 [16]): 17.5% | AUC at 336 h (in vivo [17]): 38200 ng·h/mL | half-life at 1.5 h, 1 µM (in vitro): 78.3 min | Drug metabolism [18]: metabolite_detected | Tmax [19]: 1 h | Tmax [20]: 8.67 h | IC50 (Cytochrome P450 2C19): > 10 µM | AUC(0-t) at 24 h [21]: 539 ng·h/mL | Tmax [22]: 8.67 h | Drug uptake [23]: Active | Activity (MC-38 [24]): 76.61% | Activity (MC-38 [25]): 12.77% | Drug metabolism [26]: metabolite_detected | Tmax [27]: 8 h | clearance at 24 h [28]: 4.17 mL/min/kg | microsomal CLint at 1 µM [29]: 38 µL/min/mg | inhibition in vivo at 0.1 mg/kg (MC-38 [30]): 28.5% | Drug absorption [31]: Active | microsomal CLint at 1 µM [32]: 20.3 µL/min/mg
